The record followed here is US12097174B2, “Methods and agents that enhance myogenic progenitor cell engraftment” (President and Fellows of Harvard College, priority 2018, dated 2024).

Entries after “also recorded” stand apart in the source; their conditions may differ.

Assay [1] concerns mouse satellite cells. Kind of assay: Calcium imaging in Fluo-4 AM-loaded mouse satellite cells (AUC of signal intensity). The format is cell-based. The note with it: 1-5 μM of LPA, 2.5-10 μM of NFA; 1,500 cells/well. On the procedure:
First, to establish optimal conditions, cells were sorted by FACS into 384 well plates at 10,000, 5,000, 1,500, or 500 cells per well, with 8 replicates for each cell density. […] Cells were again incubated with Fluo4 AM for 45 minutes at 37° C. followed by imaging. Different concentrations of LPA, NFA, or both compounds combined, along with DMSO (vehicle control) and ionomycin (direct calcium ionophore), were added 60 seconds after the beginning of imaging to quantify both baseline calcium ion concentrations and calcium flux in response to the different treatment conditions. Calcium concentrations were calculated as area under the curve (AUC) of signal intensity and compared these values across different concentrations of each compound (FIG. 25A).
Satellite cells were isolated from wild-type mice (FVB/NJ) and sorted into 384 well plates in culture media. The cells were incubated overnight at 37° C. The next day, the cells were incubated with Fluo-4 AM (Thermo Fisher Sci F14201), a fluorescent calcium ion indicator, for 45 minutes at 37° C., followed by imaging of the entire plate with the FDSS 7000 ex functional drug screening system (Hamamatsu) in the BCH assay development and screening facility.

In assay [2] the test system is sapje-like (sap^c/100) fish. Kind of assay: Swimming performance of sapje-like fish before and after transplantation of treated ZeMPCs. The note with it: cells treated before transplant; tested 7 days after transplant, flow about 5.5 L/min. The format is in vivo, zebrafish. On the procedure:
Finally, to assess the functionality of myogenic precursors exposed to NFA and/or LPA prior to muscle engraftment, the swimming performance of sapje-like fish was evaluated before and after transplantation. […] Recipient sapje-like fish were irradiated and injected with healthy ZeMPCs, exposed prior to transplant to NFA, LPA or vehicle alone, on both flanks at 3 dorsal points on each side-in the tail, beneath the dorsal fin, and in the trunk-with 25 cells per injection. Immediately prior to transplant, and again 7 days after transplant, muscle function was tested in a modified Blazka-type swim chamber, in which a flow rate of approximately 5.5 L/min was introduced to test swimming performance (FIG. 16A). […] Because only the treated cells were transplanted, after removal of the compounds, it was concluded from these studies that the swimming performance of these transplanted sapje-like fish was improved as a result of better engraftment by NFA-treated or LPA-treated ZeMPCs. Juvenile zebrafish from a sapje-like transgenic line were fin-clipped and genotyped to identify heterozygotes. A flow-through modified Blazka-type swim chamber was creating using a horizontal acrylic tank with dimensions of 350 mm 1×47 mm w×90 mm d. […] The raw digital file was then analyzed for movement within the swim area. The distance from the flow source was quantified using MATLAB (MathWorks).

Assay [3] relates to C2C12 cells. Put plainly: Calcium imaging in Fura-2, AM treated C2C12 cells (single-cell imaging). The assay is classed as cell-based, mouse. Conditions: 10 μM NFA, 5 μM LPA; 10-20 seconds after loading. How it is done:
Fura-2, AM treated C2C12 cells were exposed to 10 μM NFA, 5 μM LPA or DMSO as vehicle control to visualize the effect on intracellular calcium ion concentration using single-cell imaging. […] Scale bar 50 μm.
The ZeMPCs and C2C12 cells were incubated with Fura-2, AM (Thermo Fisher Sci F1225), a cell permeant fluorescent calcium ion indicator, for 45 minutes at 28.5° C. and 37° C., respectively, followed by imaging with Celldiscoverer7 Microscope (Zeiss). 20 seconds after imaging initiation the treatment was added to the cells and continued for a total of 2-3 minutes.

Turning to `O=C(O)c1cccnc1Nc1cccc(C(F)(F)F)c1` [NFA, niflumic acid], in assay [1], the “calcium ion concentrations (AUC of signal intensity) relative to vehicle-treated controls” value was “increased significantly”. The “swimming performance vs fish engrafted with vehicle-treated cells” value in assay [2] is “better swimming performance; also recorded: performed significantly better”. For the same compound, the “intracellular calcium ion concentration” value in assay [3] is recorded as “increase”.

In the case of lysophosphatidic acid [LPA], in assay [1], the “calcium ion concentrations (AUC of signal intensity) relative to vehicle-treated controls” value was “increased significantly”. In assay [2], the “swimming performance vs fish engrafted with vehicle-treated cells” value was “better swimming performance; also recorded: performed significantly better”. In addition, the “intracellular calcium ion concentration” value in assay [3] is recorded as “increase”.
